Data on nine compounds can be found in patent US10004701B2, “Methods and compositions for treating infection” (UNIVERSITY OF ROCHESTER, priority 2012, dated 2018).

Where a name gives a salt, the structure may show the parent alone. Read-outs that look alike come from different tables or passages of the source.

What all share (assay): AK assay 384-well format, Prestwick library screening
For one assay, the system named is E. faecium. The assay is classed as cell-based, Enterococcus faecium. As to conditions: 50 μM final drug concentration; for fold induction at 50 µM: Enterococcus faecium, 3 h.
Assay [1] has as its system S. aureus strain USA300-0114. The assay is classed as cell-based, Staphylococcus aureus. The conditions noted are these: 50 μM final drug concentration; for fold induction at 50 µM: Staphylococcus aureus, USA300, 3 h.
Another assay relates to K. pneumoniae. It counts as cell-based, Klebsiella pneumoniae. The conditions noted are these: 50 μM final drug concentration; for fold induction at 50 µM: Klebsiella pneumoniae, 3 h.
Assay [2] relates to A. baumannii strain 98-37-09. The assay is classed as cell-based, Acinetobacter baumannii. The conditions noted are these: 50 μM final drug concentration; for fold induction at 50 µM: Acinetobacter baumannii, 983709, 3 h.
The next assay concerns P. aeruginosa. The assay is classed as cell-based, Pseudomonas aeruginosa. The conditions noted are these: 50 μM final drug concentration; for fold induction at 50 µM: Pseudomonas aeruginosa, 3 h.
The subject of a further assay is E. cloacae. It counts as cell-based, Enterobacter cloacae. The conditions noted are these: 50 μM final drug concentration; for fold induction at 50 µM: Enterobacter cloacae, 3 h.
In the next assay the test system is E. coli. It counts as cell-based, Escherichia coli. The conditions noted are these: 50 μM final drug concentration; for fold induction at 50 µM: Escherichia coli, 3 h.
Where [3] appears, read: planktonic E. faecium, cutoff for positive-scoring molecules 3-fold increase, read-out: AK-based Prestwick Library Screening Results, E. faecium (increase in extracellular AK activity).
[4] abbreviates: planktonic S. aureus, cutoff for positive-scoring molecules 3-fold increase, read-out: AK-based Prestwick Library Screening Results, S. aureus (increase in extracellular AK activity).
The mark [5] stands for this setting: planktonic K. pneumoniae, cutoff for positive-scoring molecules 3-fold increase, read-out: AK-based Prestwick Library Screening Results, K. pneumoniae (increase in extracellular AK activity).
Setting [6] is: planktonic A. baumannii, cutoff for positive-scoring molecules 3-fold increase, read-out: AK-based Prestwick Library Screening Results, A. baumannii (increase in extracellular AK activity).
Setting [7] is: planktonic P. aeruginosa, cutoff for positive-scoring molecules 3-fold increase, read-out: AK-based Prestwick Library Screening Results, P. aeruginosa (increase in extracellular AK activity).
The mark [8] stands for this setting: planktonic E. cloacae, cutoff for positive-scoring molecules 3-fold increase, read-out: AK-based Prestwick Library Screening Results, E. cloacae (increase in extracellular AK activity).
Where [9] appears, read: planktonic E. coli, cutoff for positive-scoring molecules 3-fold increase, read-out: AK-based Prestwick Library Screening Results, E. coli (increase in extracellular AK activity).
Setting [10] is: planktonic, cutoff for positive-scoring molecules 3-fold increase, read-out: AK-based Prestwick Library Screening Results, E. faecium (fold increase in extracellular AK activity).
Setting [11] is: planktonic, cutoff for positive-scoring molecules 3-fold increase, read-out: AK-based Prestwick Library Screening Results, S. aureus (fold increase in extracellular AK activity).
The mark [12] stands for this setting: planktonic, cutoff for positive-scoring molecules 3-fold increase, read-out: AK-based Prestwick Library Screening Results, K. pneumoniae (fold increase in extracellular AK activity).
Where [13] appears, read: planktonic, cutoff for positive-scoring molecules 3-fold increase, read-out: AK-based Prestwick Library Screening Results, A. baumannii (fold increase in extracellular AK activity).
Setting [14] is: planktonic, cutoff for positive-scoring molecules 3-fold increase, read-out: AK-based Prestwick Library Screening Results, P. aeruginosa (fold increase in extracellular AK activity).
The mark [15] stands for this setting: planktonic, cutoff for positive-scoring molecules 3-fold increase, read-out: AK-based Prestwick Library Screening Results, E. cloacae (fold increase in extracellular AK activity).
[16] abbreviates: planktonic, cutoff for positive-scoring molecules 3-fold increase, read-out: AK-based Prestwick Library Screening Results, E. coli (fold increase in extracellular AK activity).

For `Fc1ccc(C(OCCN2CCN(CCCc3ccccc3)CC2)c2ccc(F)cc2)cc1` [GBR 12909 dihydrochloride], the fold induction at 50 µM in the assay on E. faecium (planktonic, cutoff for positive 3-fold increase, read-out: AK-based Prestwick Library Screening Results, E. faecium (fold increase in extracellular AK activity)) stood at 1.3; in assay [1] (planktonic, cutoff for positive 3-fold increase, read-out: AK-based Prestwick Library Screening Results, S. aureus (fold increase in extracellular AK activity)), 1.5; with K. pneumoniae (planktonic, cutoff for positive 3-fold increase, read-out: AK-based Prestwick Library Screening Results, K. pneumoniae (fold increase in extracellular AK activity)), 1; in assay [2] (planktonic, cutoff for positive 3-fold increase, read-out: AK-based Prestwick Library Screening Results, A. baumannii (fold increase in extracellular AK activity)), 2.2; in the assay with P. aeruginosa (planktonic, cutoff for positive 3-fold increase, read-out: AK-based Prestwick Library Screening Results, P. aeruginosa (fold increase in extracellular AK activity)), 1.2; with E. cloacae (planktonic, cutoff for positive 3-fold increase, read-out: AK-based Prestwick Library Screening Results, E. cloacae (fold increase in extracellular AK activity)), 1.5. In the assay on E. coli (planktonic, cutoff for positive 3-fold increase, read-out: AK-based Prestwick Library Screening Results, E. coli (fold increase in extracellular AK activity)), the fold induction at 50 µM stood at 1.4.
On to `O=C(O)Cc1ccccc1Nc1c(Cl)cccc1Cl` [Diclofenac sodium], for which the fold induction at 50 µM in the assay with E. faecium (setting [3]) was determined as 0.9; in assay [1] (setting [4]), 0.8; in the assay with K. pneumoniae (setting [5]), 0.7; in assay [2] (setting [6]), 0.8; in the assay on P. aeruginosa (setting [7]) it was 0.9; in the assay with E. cloacae (setting [8]), 1.2. For the same compound, in the assay on E. coli (setting [9]), the fold induction at 50 µM was 0.9.
Regarding `O=C1OCCN1/N=C/c1ccc([N+](=O)[O-])o1` [Furazolidone], the fold induction at 50 µM with E. faecium (setting [10]) is 0.9; in assay [1] (setting [11]), 0.8; in the assay with K. pneumoniae (setting [12]) it was 3.2; in assay [2] (setting [13]), 0.4; in the assay on P. aeruginosa (setting [14]), 0.6; in the assay with E. cloacae (setting [15]), 0.6. Besides, the fold induction at 50 µM in the assay on E. coli (setting [16]) is 0.8.
In the case of Cyanocobalamin, the “AK-based Prestwick Library Screening Results, E. faecium (increase in extracellular AK activity)” value in the assay with E. faecium (planktonic E. faecium, cutoff for positive-scoring molecules 3-fold increase) came out at 0.8. In addition, in assay [1] (planktonic S. aureus, cutoff for positive-scoring molecules 3-fold increase), the “AK-based Prestwick Library Screening Results, S. aureus (increase in extracellular AK activity)” value is 0.5. Besides, the “AK-based Prestwick Library Screening Results, K. pneumoniae (increase in extracellular AK activity)” value with K. pneumoniae (planktonic K. pneumoniae, cutoff for positive-scoring molecules 3-fold increase) is given as 0.6. For the same compound, in assay [2] (planktonic A. baumannii, cutoff for positive-scoring molecules 3-fold increase), the “AK-based Prestwick Library Screening Results, A. baumannii (increase in extracellular AK activity)” value was 0.8. In addition, in the assay on P. aeruginosa (planktonic P. aeruginosa, cutoff for positive-scoring molecules 3-fold increase), the “AK-based Prestwick Library Screening Results, P. aeruginosa (increase in extracellular AK activity)” value was found to be 0.7. Further, the “AK-based Prestwick Library Screening Results, E. cloacae (increase in extracellular AK activity)” value with E. cloacae (planktonic E. cloacae, cutoff for positive-scoring molecules 3-fold increase) is listed as 1.2. Moreover, the “AK-based Prestwick Library Screening Results, E. coli (increase in extracellular AK activity)” value in the assay on E. coli (planktonic E. coli, […]) is listed as 0.8.
For the compound `NS(=O)(=O)c1cc(Cl)c(Cl)c(S(N)(=O)=O)c1` [Dichlorphenamide], the fold induction at 50 µM came to 1.1 in the assay with E. faecium (setting [10]); 0.5 in assay [1] (setting [11]); 0.5 in the assay on K. pneumoniae (setting [12]); 0.5 in assay [2] (setting [13]); 0.5 in the assay on P. aeruginosa (setting [14]); 0.5 in the assay with E. cloacae (setting [15]). Also, the fold induction at 50 µM with E. coli (setting [16]) was found to be 0.6.
Regarding `C[C@]12C=CC(=O)C=C1CC[C@@H]1[C@@H]2C(=O)C[C@@]2(C)[C@H]1CC[C@]2(O)C(=O)CO` [Prednisone], the fold induction at 50 µM with E. faecium (planktonic E. faecium, 384-well, cutoff for positive-scoring molecules 3-fold increase, read-out: AK-based Prestwick Library Screening Results: E. faecium (increase in extracellular AK activity)) worked out at 0.9; in assay [1] (planktonic S. aureus, 384-well, cutoff for positive-scoring molecules 3-fold increase, read-out: AK-based Prestwick Library Screening Results: S. aureus (increase in extracellular AK activity)) it was 1.1; in the assay on K. pneumoniae (planktonic K. pneumoniae, 384-well, cutoff for positive-scoring molecules 3-fold increase, read-out: AK-based Prestwick Library Screening Results: K. pneumoniae (increase in extracellular AK activity)) it was 0.9; in assay [2] (planktonic A. baumannii, 384-well, cutoff for positive-scoring molecules 3-fold increase, read-out: AK-based Prestwick Library Screening Results: A. baumannii (increase in extracellular AK activity)), 1.2; with P. aeruginosa (planktonic P. aeruginosa, 384-well, cutoff for positive-scoring molecules 3-fold increase, read-out: AK-based Prestwick Library Screening Results: P. aeruginosa (increase in extracellular AK activity)) it was 0.9; in the assay with E. cloacae (planktonic E. cloacae, 384-well, cutoff for positive-scoring molecules 3-fold increase, read-out: AK-based Prestwick Library Screening Results: E. cloacae (increase in extracellular AK activity)), 1.4. The fold induction at 50 µM with E. coli (planktonic E. coli, 384-well, cutoff for positive-scoring molecules 3-fold increase, read-out: AK-based Prestwick Library Screening Results: E. coli (increase in extracellular AK activity)) is 1.2.
`C[N+]1(C)[C@@H]2CC[C@H]1C[C@@H](OC(=O)C(CO)c1ccccc1)C2` (stereo partly drawn) [Methylatropine nitrate]: the fold induction at 50 µM in the assay on E. faecium (setting [10]) amounted to 1; in assay [1] (setting [11]), 0.6; with K. pneumoniae (setting [12]) it was 0.6; in assay [2] (setting [13]), 0.7; with P. aeruginosa (setting [14]), 0.7; in the assay on E. cloacae (setting [15]), 0.8. Further, the fold induction at 50 µM with E. coli (setting [16]) is 0.7.
For `O=c1[nH]c2ccccc2n1CCCN1CCC(n2c(=O)[nH]c3cc(Cl)ccc32)CC1` [Domperidone], the fold induction at 50 µM came to 0.9 in the assay with E. faecium (setting [3]); 0.8 in assay [1] (setting [4]); 0.6 in the assay on K. pneumoniae (setting [5]); 0.7 in assay [2] (setting [6]); 0.6 in the assay with P. aeruginosa (setting [7]); 0.8 in the assay with E. cloacae (setting [8]). Besides, the fold induction at 50 µM with E. coli (setting [9]) was found to be 0.6.
As for `COCC(=O)Nc1c(I)c(C(=O)NCC(O)CO)c(I)c(C(=O)N(C)CC(O)CO)c1I` (stereo not drawn) [Iopromide], the fold induction at 50 µM with E. faecium (cutoff for positive-scoring molecules 3-fold increase, read-out: AK-based Prestwick Library Screening Results, E. faecium (fold increase in extracellular AK activity)) turned out to be 1; in assay [1] (cutoff for positive-scoring molecules 3-fold increase, read-out: AK-based Prestwick Library Screening Results, S. aureus (fold increase in extracellular AK activity)), 1.3; in the assay on K. pneumoniae (cutoff for positive-scoring molecules 3-fold increase, read-out: AK-based Prestwick Library Screening Results, K. pneumoniae (fold increase in extracellular AK activity)), 1.1; in assay [2] (cutoff for positive-scoring molecules 3-fold increase, read-out: AK-based Prestwick Library Screening Results, A. baumannii (fold increase in extracellular AK activity)) it was 1.1; in the assay on P. aeruginosa (cutoff for positive-scoring molecules 3-fold increase, read-out: AK-based Prestwick Library Screening Results, P. aeruginosa (fold increase in extracellular AK activity)), 1.2; with E. cloacae (cutoff for positive-scoring molecules 3-fold increase, read-out: AK-based Prestwick Library Screening Results, E. cloacae (fold increase in extracellular AK activity)) it was 1.4. Also, the fold induction at 50 µM with E. coli (cutoff for positive-scoring molecules 3-fold increase, read-out: AK-based Prestwick Library Screening Results, E. coli (fold increase in extracellular AK activity)) turned out to be 1.2.
